According to US20260062422A1 (Halda Therapeutics OpCo, Inc., priority 2022, published 2026):

Experiments:
T47D cells = assay: Cellular growth inhibition assay for T47D cells, CellTiter-Glo; format: cell-based, human; details: 72 hours treatment, CellTiter-Glo 2.0 cell viability
Summary of the method: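 Luminescence from CellTiter-Glo 2.0 after 72 h of compound exposure gives the viability signal. Cells grew in insulin-supplemented (0.2 units/mL) DMEM with 10% FBS and were treated one day after seeding at 0.5% DMSO. GI50 values come from four-parameter nonlinear regression.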

[1] = test system: T-Rex 293 cell line SC3 cells lacking increased expression of androgen receptor protein; assay: Cellular growth inhibition, T-Rex 293 SC3 cells without doxycycline, CellTiter-Glo; format: cell-based; details: T-Rex 293 SC3 cells not exposed to doxycycline, CellTiter-Glo 2.0
Summary of the method: (§1)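 With DMSO (0.5%) vehicle as negative control, compounds treated SC3 cells for 72 h in medium containing charcoal-dextran FBS ± doxycycline. This T-Rex 293 clone expresses transfected wild-type AR on induction. Readout: CellTiter-Glo 2.0; GI50 by nonlinear regression.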

[2] = test system: T-Rex 293 cell line SC3 cells having increased expression of androgen receptor protein due to exposure to doxycycline; assay: Cellular growth inhibition, T-Rex 293 SC3 cells with doxycycline (androgen receptor induced), CellTiter-Glo; format: cell-based; details: T-Rex 293 SC3 cells with 10 ng/mL doxycycline (increased androgen receptor expression)
Summary of the method: as §1

VCaP cells = assay: Cellular growth inhibition assay for VCaP cells, CellTiter-Glo; format: cell-based, human; details: 72 hours treatment, CellTiter-Glo 2.0
Summary of the method: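 GI50 values come from four-parameter curve fits of luminescence data normalized to a zero baseline. Compound, in medium with 0.5% DMSO, was added one day after plating and left for 72 h before CellTiter-Glo 2.0 addition.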

SMILES | GI50 (T47D cells; Homo sapiens, T47D, 72 h) [nM] | GI50 ([1]; 72 h) [nM] | GI50 ([2]; 72 h) [nM] | GI50 (VCaP cells; Homo sapiens, VCaP, 72 h) [nM] | GI50 (T47D cells) [nM] | GI50 ([1]; 72 hours) [nM] | GI50 ([2]; 72 hours) [nM] | GI50 (VCaP cells) [nM]
Cc1sc2c(c1C)C(c1ccc(C#CC3CC4(C3)CN(c3ncc(C(=O)N[C@H]5C(C)(C)[C@H](Oc6ccc(C#N)c(Cl)c6)C5(C)C)cn3)C4)cc1)=NC1(CC1)c1nnc(C)n1-2 [Compound I-462] | 500 to 1500 | 500 to 1500 | < 500 | < 500 |  |  |  | 
Cc1sc2c(c1C)C(c1ccc(CCCOC3CCN(c4ncc(C(=O)N[C@H]5C(C)(C)[C@H](Oc6ccc(C#N)c(Cl)c6)C5(C)C)cn4)CC3)cc1)=N[C@@H](Cc1cccnc1)c1nnc(C)n1-2 [Compound I-214] | < 500 | < 500 | < 500 | < 500 |  |  |  | 
Cc1sc2c(c1C)C(c1ccc(OC[C@H]3C[C@@]4(CCCN(c5ncc(C(=O)N[C@H]6C(C)(C)[C@H](Oc7ccc(C#N)c(Cl)c7)C6(C)C)cn5)C4)C3)cc1)=N[C@@H](Cc1ncco1)c1nnc(C)n1-2 [Compound I-234] | < 500 | 500 to 1500 | < 500 | < 500 |  |  |  | 
Cc1sc2c(c1C)C(c1ccc(CCC[C@H]3CCCN(c4ncc(C(=O)N[C@H]5C(C)(C)[C@H](Oc6ccc(C#N)c(Cl)c6)C5(C)C)cn4)C3)cc1)=N[C@@H](C)c1nnc(C)n1-2 [Compound I-366] | > 3000 | > 3000 | < 500 | < 500 |  |  |  | 
Cc1sc2c(c1C)C(c1ccc(OC3CC4(C3)CC3(CCN(c5ncc(C(=O)N[C@H]6C(C)(C)[C@H](Oc7ccc(C#N)c(Cl)c7)C6(C)C)cn5)CC3)C4)cc1)=N[C@@H](C)c1nnc(C)n1-2 [Compound I-411] | 500 to 1500 | > 3000 | < 500 | < 500 |  |  |  | 
Cc1sc2c(c1C)C(c1ccc(N[C@@H]3CCC[C@H](Nc4ncc(C(=O)N[C@H]5C(C)(C)[C@H](Oc6ccc(C#N)c(Cl)c6)C5(C)C)cn4)C3)cc1)=NC(Cc1ncco1)c1nnc(C)n1-2 (some centres unmarked) [Compound I-653] | < 500 | < 500 | < 500 | < 500 |  |  |  | 
Cc1sc2c(c1C)C(c1ccc(N3CC4(CCC(Cc5ncc(C(=O)N[C@H]6C(C)(C)[C@H](Oc7ccc(C#N)c(Cl)c7)C6(C)C)cn5)CC4)C3)cc1)=N[C@@H](Cc1ncco1)c1nnc(C)n1-2 [Compound I-458] | < 500 | < 500 | < 500 | < 500 |  |  |  | 
Cc1sc2c(c1C)C(c1ccc([C@H]3C[C@@H](C[C@@H]4CCCN(c5ncc(C(=O)N[C@H]6C(C)(C)[C@H](Oc7ccc(C#N)c(Cl)c7)C6(C)C)cn5)C4)C3)cc1)=N[C@@H](Cc1ncco1)c1nnc(C)n1-2 [Compound I-401] |  |  |  |  | > 3000 | > 3000 | > 3000 | > 3000
Cc1sc2c(c1C)C(c1ccc(CCC(=O)N3CC4(C3)CN(c3ncc(C(=O)N[C@H]5C(C)(C)[C@H](Oc6ccc(C#N)c(Cl)c6)C5(C)C)cn3)C4)cc1)=N[C@@H](C)c1nnc(C)n1-2 [Compound I-603] | 500 to 1500 | > 3000 | < 500 | 500 to 1500 |  |  |  | 
Cc1sc2c(c1C)C(c1ccc(C3CC(C4CCN(c5ncc(C(=O)N[C@H]6C(C)(C)[C@H](Oc7ccc(C#N)c(Cl)c7)C6(C)C)cn5)CC4)C3)cc1)=NC(C)c1nnc(C)n1-2 (some centres unmarked) [Compound I-466] |  |  |  |  | < 500 | > 3000 | < 500 | > 3000
Cc1sc2c(c1C)C(c1ccc(C(=O)N3CCC(Cc4ncc(C(=O)N[C@H]5C(C)(C)[C@H](Oc6ccc(C#N)c(Cl)c6)C5(C)C)cn4)CC3)cc1)=N[C@@H](Cc1ncco1)c1nnc(C)n1-2 [Compound I-288] | > 3000 | > 3000 | > 3000 | > 3000 |  |  |  | 
Cc1sc2c(c1C)C(c1ccc(N3CCCC(C(=O)N4CCC[C@H](c5ncc(C(=O)N[C@H]6C(C)(C)[C@H](Oc7ccc(C#N)c(Cl)c7)C6(C)C)cn5)C4)C3)cc1)=N[C@@H](Cc1ncco1)c1nnc(C)n1-2 (some centres unmarked) [Compound I-336] | < 500 | 500 to 1500 | < 500 | 500 to 1500 |  |  |  | 
CCNC(=O)C[C@@H]1N=C(c2ccc(N3CC(OC4CCN(c5ncc(C(=O)N[C@H]6C(C)(C)[C@H](Oc7ccc(C#N)c(Cl)c7)C6(C)C)cn5)CC4)C3)cc2)c2c(sc(C)c2C)-n2c(C)nnc21 [Compound I-117] | < 500 | 500 to 1500 | < 500 | < 500 |  |  |  | 
Cc1sc2c(c1C)C(c1ccc(CCCOC3CCN(c4ncc(C(=O)N[C@H]5C(C)(C)[C@H](Oc6ccc(C#N)c(Cl)c6)C5(C)C)cn4)CC3)cc1)=N[C@@H](Cc1ccccn1)c1nnc(C)n1-2 [Compound I-212, N-[3-(3-chloro-4-cyano-phenoxy)-2,2,4,4-tetramethyl-cyclobutyl]-2-[4-[3-[4-[(9S)-4,5,13-trimethyl-9-(2-pyridylmethyl)-3-thia-1,8,11,12-tetrazatricyclo[8.3.0.02,6]trideca-2(6),4,7,10,12-pentaen-7-yl]phenyl]propoxy]-1-piperidyl]pyrimidine-5-carboxamide] | < 500 | > 3000 | < 500 | < 500 |  |  |  | 
Cc1sc2c(c1C)C(c1ccc(-c3conc3OC3CCN(c4ncc(C(=O)N[C@H]5C(C)(C)[C@H](Oc6ccc(C#N)c(Cl)c6)C5(C)C)cn4)CC3)cc1)=N[C@@H](Cc1ncco1)c1nnc(C)n1-2 [Compound I-432] | > 3000 | > 3000 | < 500 | < 500 |  |  |  | 
Cc1sc2c(c1C)C(c1ccc(N3CC(C4CCN(c5ncc(C(=O)N[C@H]6C(C)(C)[C@H](Oc7ccc(C#N)c(Cl)c7)C6(C)C)cn5)C4)C3)cc1)=N[C@@H](C)c1nnc(C)n1-2 (some centres unmarked) [Compound I-616] | < 500 | < 500 | < 500 | < 500 |  |  |  | 
Cc1sc2c(c1C)C(c1ccc(CNC(=O)[C@@H]3CCCN(c4ncc(C(=O)N[C@H]5C(C)(C)[C@H](Oc6ccc(C#N)c(Cl)c6)C5(C)C)cn4)C3)cc1)=N[C@@H](Cc1ncco1)c1nnc(C)n1-2 [Compound I-265] | < 500 | 1500 to 3000 | < 500 | < 500 |  |  |  | 
Cc1sc2c(c1C)C(c1ccc(N3CCC[C@H](C(=O)NCc4ncc(C(=O)N[C@H]5C(C)(C)[C@H](Oc6ccc(C#N)c(Cl)c6)C5(C)C)cn4)C3)cc1)=N[C@@H](Cc1ncco1)c1nnc(C)n1-2 [Compound I-331] |  |  |  |  | 500 to 1500 | 500 to 1500 | < 500 | < 500
Cc1sc2c(c1C)C(c1ccc(CCCN(C)C(=O)c3ncc(C(=O)N[C@H]4C(C)(C)[C@H](Oc5ccc(C#N)c(Cl)c5)C4(C)C)cn3)cc1)=N[C@@H](Cc1ncco1)c1nnc(C)n1-2 [Compound I-362] | 500 to 1500 | > 3000 | < 500 | < 500 |  |  |  | 
Cc1sc2c(c1C)C(c1ccc(C(F)(F)N3CC4(CCN(c5ncc(C(=O)N[C@H]6C(C)(C)[C@H](Oc7ccc(C#N)c(Cl)c7)C6(C)C)cn5)CC4)C3)cc1)=N[C@@H](Cc1ncco1)c1nnc(C)n1-2 [Compound I-504] | < 500 | > 3000 | < 500 | < 500 |  |  |  | 
Cc1sc2c(c1C)C(c1ccc(N3CCC4(CC3)CCN(c3ncc(C(=O)N[C@H]5C(C)(C)[C@H](Oc6ccc(C#N)c(Cl)c6)C5(C)C)cn3)CC4)cc1)=N[C@@H](Cc1ncco1)c1nnc(C)n1-2 [Compound I-645] | < 500 | > 3000 | < 500 | < 500 |  |  |  | 
Cc1sc2c(c1C)C(c1ccc(CC3CC4(CCN(c5ccc(C(=O)N[C@H]6C(C)(C)[C@H](Oc7ccc(C#N)c(Cl)c7)C6(C)C)nc5)CC4)C3)cc1)=N[C@@H](C)c1nnc(C)n1-2 [Compound I-447] | < 500 | > 3000 | < 500 | 500 to 1500 |  |  |  | 
Cc1sc2c(c1C)C(c1ccc(C3CC(C4CCN(c5ncc(C(=O)N[C@H]6C(C)(C)[C@H](Oc7ccc(C#N)c(Cl)c7)C6(C)C)cn5)CC4)C3)cc1)=NC(C)c1nnc(C)n1-2 (some centres unmarked) [Compound I-465] | < 500 | > 3000 | < 500 |  |  |  |  | < 500
Cc1sc2c(c1C)C(c1ccc(CC3CC4(CCN(c5ccc(C(=O)N(C)[C@H]6C(C)(C)[C@H](Oc7ccc(C#N)c(Cl)c7)C6(C)C)cn5)CC4)C3)cc1)=N[C@@H](C)c1nnc(C)n1-2 [Compound I-589] | 500 to 1500 | > 3000 | < 500 | < 500 |  |  |  | 
COCC[C@@H]1N=C(c2ccc(CC3CC4(CCN(c5cnc(C(=O)N[C@H]6C(C)(C)[C@H](Oc7ccc(C#N)c(Cl)c7)C6(C)C)cn5)CC4)C3)cc2)c2c(sc(C)c2C)-n2c(C)nnc21 [Compound I-586] | < 500 | > 3000 | < 500 | < 500 |  |  |  | 
Cc1sc2c(c1C)C(c1ccc([C@@H]3CCCCN3C(=O)[C@H]3CCCN(c4ncc(C(=O)N[C@H]5C(C)(C)[C@@H](Oc6ccc(C#N)c(Cl)c6)C5(C)C)cn4)C3)cc1)=N[C@@H](Cc1ncco1)c1nnc(C)n1-2 [Compound I-360] | > 3000 | > 3000 | < 500 | < 500 |  |  |  | 
